These results are taken from article PMC5149019, “Synthesis, Characterization and Cytotoxicity of Alkylated Quercetin Derivatives” (Iranian Journal of Pharmaceutical Research : IJPR, 2016).

The nature of series [1]: Solubility in DMEM medium by turbidimetry. It is filed as physicochemical. The conditions noted are these: turbidimetry at 630 nm; for solubility at 48 h: 37 °C, aqueous buffer, kinetic from dmso stock. The protocol:
Solubility of the derivatives was evaluated by turbidimetry as previously described ([7]). Briefly, derivatives were dissolved in DMSO at a final concentration of 50 mM, and then diluted by DMEM medium at final concentrations of 20, 40, 60, 80, 100, 120, 140, 160, 180 and 200 μM. After these solutions were incubated at 37 ℃ for 48 h, absorbances of them at 630 nm were measured.

The test system of a further series is Caco-2 cells. As to the kind of experiment: MTT cytotoxicity assay, Caco-2 cells. To be noted: Homo sapiens, 48 h exposure. It is filed as cell-based. Here is the method:
(§1) Taking solubility of the derivatives into consideration, BQ and GQ were selected for the primary cytotoxicity study. According to the result of the primary cytotoxicity study, the cytotoxicity of GQ on NCI-H446, A549, MGC-803 and SGC-7901 cell lines was further investigated. To justify the effectiveness of BQ and GQ, cytotoxicity of the parent compound quercetin on all the cell lines used in this study was determined either. Briefly, 8000 cells with 0.1 mL medium were seeded in 96-well microplates. The derivatives or quercetin were dissolved in DMSO (50 mM) and then diluted with the medium to a series of testing concentrations. After exposure to the derivatives or quercetin for 48 h, cells were carefully washed by PBS three times and then 0.1 mL MTT (0.5 mg/mL) was added to each well. DMSO was used as solvent for following spectrum analysis at 570 nm. Proliferation values were calculated with the formula as follow: proliferation = (Atest-Ablank)/(Acontrol-Ablank). According to the proliferation data, all IC50 values were calculated by SPSS software using probit regression assay.

The next series has as its system MCF-7 cells. As to the kind of experiment: MTT cytotoxicity assay, MCF-7 cells. To be noted: for pIC50: Homo sapiens, MCF7, MCF-7 cells, 48 h exposure, MTT. It is filed as cell-based, human. Here is the method:
as §1

Another series relates to cancer cells. The conditions noted are these: cited from earlier work.
In another series the test system is MGC-803. As to the kind of experiment: MTT cytotoxicity assay, MGC-803 cells. It is filed as cell-based. To be noted: Homo sapiens, 48 h exposure. The protocol:
as §1

A further series relates to SGC-7901. As to the kind of experiment: MTT cytotoxicity assay, SGC-7901 cells. The conditions noted are these: Homo sapiens, 48 h exposure. It is filed as cell-based. The protocol:
as §1

For a further series, the system named is NCI-H446. The series can be described thus: MTT cytotoxicity assay, NCI-H446 cells. The conditions noted are these: Homo sapiens, 48 h exposure. It is filed as cell-based. The protocol: as §1
The test system of the next series is A549. As to the kind of experiment: MTT cytotoxicity assay, A549 cells. It is filed as cell-based. To be noted: Homo sapiens, 48 h exposure. Here is the method: as §1
The mark [2] stands for this setting: compared with quercetin, ref [5].

pIC50: −log10 of the molar value. Converted amounts (≈) assume the structure as drawn.

In the case of `CCCCOc1cc(O)c2c(=O)c(O)c(-c3ccc(O)c(O)c3)oc2c1` [BQ, 7-O-Butylquercetin], the solubility at 48 h in series [1] is roughly 180 µM (≈ 64.5 µg/mL). Also, the pIC50 is 4.18 in the series on Caco-2 cells and 4.41 in the series on MCF-7 cells.

With `O=c1c(O)c(-c2ccc(O)c(O)c2)oc2cc(OCC=Cc3ccccc3)cc(O)c12` [CQ, 7-O-cinnamylquercetin], the “solubility in DMEM medium (in words)” value in series [1] (37 ℃, 48 h) is listed as “almost insoluble”.

As to `CC(=O)Oc1cc(O)c2c(=O)c(OC(C)=O)c(-c3ccc(OC(C)=O)c(OC(C)=O)c3)oc2c1` [3,7,3′,4′-O-tetraacetylquercetin], in the series with cancer cells (setting [2]), the “cytotoxicity compared with quercetin” value is reported as “about 3 fold”.

As for `CC(C)=CCC/C(C)=C/COc1cc(O)c2c(=O)c(O)c(-c3ccc(O)c(O)c3)oc2c1` [GQ, 7-O-geranylquercetin], the negative logarithm of the IC50 (pIC50) in the series on MGC-803 was 4.60; with SGC-7901 it was 4.73; with Caco-2 cells it was 4.36; in the series on NCI-H446 it was 4.56; with MCF-7 cells, 4.69; in the series with A549, 4.53. Moreover, the solubility at 48 h in series [1] is roughly 180 µM (≈ 78.9 µg/mL).

Take `COc1cc(O)c2c(=O)c(OC)c(-c3ccc(OC)c(OC)c3)oc2c1` [3,7,3′,4′-O-tetramethylquercetin]: the “cytotoxicity compared with quercetin (in words)” value in the series on cancer cells (setting [2]) is given as “decreases the cytotoxicity”.

In turn, `C=CCOc1cc(O)c2c(=O)c(O)c(-c3ccc(O)c(O)c3)oc2c1` [AQ, 7-O-allylquercetin] had a solubility at 48 h in series [1] of roughly 140 µM (≈ 47.9 µg/mL). In addition, in the series on MCF-7 cells (at the highest concentration), the “inhibition rate to MCF-7 cells” value is “less than 50%”.

With `O=c1c(O)c(-c2ccc(O)c(O)c2)oc2cc(O)cc(O)c12` [Quercetin], the pIC50 was 4.09 in the series on MGC-803; 4.12 in the series with SGC-7901; 3.47 with Caco-2 cells; 4.16 in the series with NCI-H446; 3.46 in the series on MCF-7 cells; 4.11 in the series with A549.

For the compound `O=c1c(O)c(-c2cc(O)c(O)c(S(=O)(=O)O)c2)oc2c(S(=O)(=O)O)c(O)cc(O)c12` [quercetin-5′,8-disulfonate], the “increased cytotoxicity relative to quercetin” value in the series on cancer cells (relative to quercetin, ref [4]) was “about 1.5 fold”.
